The source made the active and inactive calls. No cut-off for these calls is given here.
How the values were obtained:
H9c2 [1] = assay: Anti-inflammatory activity in LPS/hypoxia induced rat H9c2 cells assessed as increase in VEGF expression at 10 uM in presence of 2-(4-(5-oxo-5-((5-sulfamoyl-1,3,4-thiadiazol-2-yl)amino)pentyl)-1H-1,2,3-triazol-1-yl)acetic acid by Western blot analysis; assay type: functional, cell-based
[2] = Toxicity in Wistar rat assessed as change in CRE level in presence of 2-(4-(5-oxo-5-((5-sulfamoyl-1,3,4-thiadiazol-2-yl)amino)pentyl)-1H-1,2,3-triazol-1-yl)acetic acid; details: in vivo
H9c2 [3] = assay: Anti-inflammatory activity in LPS/hypoxia induced rat H9c2 cells assessed as reduction of TNF-alpha protein expression at 10 uM by Western blot analysis; assay type: functional, cell-based
H9c2 [4] = assay: Protection against LPS/hypoxia induced cell injury in rat H9c2 cells assessed as recovery of cell viability in presence of 2-(4-(5-oxo-5-((5-sulfamoyl-1,3,4-thiadiazol-2-yl)amino)pentyl)-1H-1,2,3-triazol-1-yl)acetic acid and Na2WO4 by CCK-8 assay; assay type: functional, cell-based
H9c2 [5] = assay: Protection against LPS/hypoxia induced cell injury in rat H9c2 cells assessed as recovery of cell viability in presence of 2-(4-(5-oxo-5-((5-sulfamoyl-1,3,4-thiadiazol-2-yl)amino)pentyl)-1H-1,2,3-triazol-1-yl)acetic acid by CCK-8 assay (reference value: 69.0%); assay type: functional
H9c2 [6] = assay: Reversal of ATP level in LPS/hypoxia induced rat H9c2 cells in presence of 2-(4-(5-oxo-5-((5-sulfamoyl-1,3,4-thiadiazol-2-yl)amino)pentyl)-1H-1,2,3-triazol-1-yl)acetic acid by multimode plate reader analysis (reference value: 21.37 nmol/mg); assay type: functional
H9c2 [7] = assay: Anti-inflammatory activity in LPS/hypoxia induced rat H9c2 cells assessed as reduction of TNF-alpha protein expression at 10 uM in presence of 2-(4-(5-oxo-5-((5-sulfamoyl-1,3,4-thiadiazol-2-yl)amino)pentyl)-1H-1,2,3-triazol-1-yl)acetic acid by Western blot analysis; assay type: functional, cell-based
Rattus norvegicus [8] = assay: (§1) Antiinflammatory activity against LPS/talc powder induced pericarditic Wistar rat assessed as elimination of pericardial effusion at 20 mg/kg, ip pretreated for 2 hrs followed by LPS/tal powder stimulation measured after 48 hrs in presence of 2-(4-(5-oxo-5-((5-sulfamoyl-1,3,4-thiadiazol-2-yl)amino)pentyl)-1H-1,2,3-triazol-1-yl)acetic acid; assay type: functional, organism-based; details: time 50.0 hrs
H9c2 [9] = assay: Inhibition of intracellular ROS level in LPS/hypoxia induced rat H9c2 cells in presence of 2-(4-(5-oxo-5-((5-sulfamoyl-1,3,4-thiadiazol-2-yl)amino)pentyl)-1H-1,2,3-triazol-1-yl)acetic acid by DCFH-DA probe based fluorescence confocal microscopy analysis; assay type: functional, cell-based
H9c2 [10] = assay: Reversal of LPS/hypoxia induced mitochondrial membrane potential loss in rat H9c2 cells in presence of 2-(4-(5-oxo-5-((5-sulfamoyl-1,3,4-thiadiazol-2-yl)amino)pentyl)-1H-1,2,3-triazol-1-yl)acetic acid by JC-1 dye based flow cytometry analysis; assay type: functional, cell-based
H9c2 [11] = assay: Protection against LPS/hypoxia induced cell injury in rat H9c2 cells assessed as recovery of cell viability at 10 uM by CCK-8 assay; assay type: functional, cell-based
H9c2 [12] = assay: Protection against LPS/hypoxia induced apoptosis in rat H9c2 cells assessed as reduction in red fluorescence by confocal microscopy analysis; assay type: functional, cell-based
Rattus norvegicus [13] = assay: as §1, with “in” for “against”, “increase in cTNI level in serum” for “elimination of pericardial effusion”, “acid (reference value: 0.167+/-0.025 ng/ml)” for “acid”; assay type: functional; details: time 50 hrs
H9c2 [14] = assay: Anti-inflammatory activity in LPS/hypoxia induced rat H9c2 cells assessed as reduction of IL-1beta protein expression at 10 uM in presence of 2-(4-(5-oxo-5-((5-sulfamoyl-1,3,4-thiadiazol-2-yl)amino)pentyl)-1H-1,2,3-triazol-1-yl)acetic acid by Western blot analysis; assay type: functional, cell-based
H9c2 [15] = assay: Antiinflammatory activity in LPS/hypoxia induced CA9 knockdown rat H9c2 cells assessed as decrease in IL-1 beta protein level at 10 uM by Western blot analysis; assay type: functional, cell-based
H9c2 [16] = assay: Reversal of ATP level in LPS/hypoxia induced rat H9c2 cell in presence of 2-(4-(5-oxo-5-((5-sulfamoyl-1,3,4-thiadiazol-2-yl)amino)pentyl)-1H-1,2,3-triazol-1-yl)acetic acid and Na2WO4 by multimode plate reader analysis; assay type: functional, cell-based
H9c2 [17] = assay: Anti-inflammatory activity in rat H9c2 cells assessed as downregulation of cytochrome C expression at 10 uM by Western blot analysis; assay type: functional, cell-based
H9c2 [18] = assay: Reversal of LPS/hypoxia induced mitochondrial membrane potential loss in rat H9c2 cells assessed as increase in JC-1 polymer morphology in presence of 2-(4-(5-oxo-5-((5-sulfamoyl-1,3,4-thiadiazol-2-yl)amino)pentyl)-1H-1,2,3-triazol-1-yl)acetic acid by JC-1 dye based flow cytometry analysis; assay type: functional, cell-based; details: time 20.0 min
Rattus norvegicus [19] = assay: as §1, with “reduction in U wave flattening” for “elimination of pericardial effusion”, “acid by ECG analysis” for “acid”; assay type: functional, organism-based; details: time 50.0 hrs
H9c2 [20] = assay: Protection against LPS/hypoxia induced apoptosis in rat H9c2 cells assessed as reduction in necrotic cells at 10 umol/L incubated for 4 hrs under hypoxia condition in presence of 2-(4-(5-oxo-5-((5-sulfamoyl-1,3,4-thiadiazol-2-yl)amino)pentyl)-1H-1,2,3-triazol-1-yl)acetic acid by AnnexinV-FITC/propidium iodide staining based flow cytometry analysis (reference value: 31.02%); assay type: functional; design: scale not given: the % may be the effect or the level left; details: dose 10 µmol/L, at 10 µM
H9c2 [21] = assay: Protection against LPS/hypoxia induced apoptosis in rat H9c2 cells assessed as reduction in green fluorescence in presence of 2-(4-(5-oxo-5-((5-sulfamoyl-1,3,4-thiadiazol-2-yl)amino)pentyl)-1H-1,2,3-triazol-1-yl)acetic acid by confocal microscopy analysis; assay type: functional, cell-based
H9c2 [22] = assay: Protection against LPS/hypoxia induced apoptosis in rat H9c2 cells assessed as reduction in necrotic cells at 10 umol/L incubated for 4 hrs under hypoxia condition by AnnexinV-FITC/propidium iodide staining based flow cytometry analysis (reference value: 31.02%); assay type: functional; design: scale not given: the % may be the effect or the level left; details: dose 10 µmol/L, at 10 µM
Rattus norvegicus [23] = assay: as §1, with “in” for “against”, “rat model” for “rat”, “increase in CK-MB level in serum” for “elimination of pericardial effusion”, “acid (reference value: 4140+/-256.23 U/L)” for “acid”; assay type: functional; details: time 50 hrs
H9c2 [24] = assay: Protection against LPS/hypoxia induced apoptosis in rat H9c2 cells assessed as reduction in red fluorescence in presence of 2-(4-(5-oxo-5-((5-sulfamoyl-1,3,4-thiadiazol-2-yl)amino)pentyl)-1H-1,2,3-triazol-1-yl)acetic acid by confocal microscopy analysis; assay type: functional, cell-based
H9c2 [25] = assay: Anti-inflammatory activity in rat H9c2 cells assessed as inhibition of endogenous IL-6 protein expression in presence of 2-(4-(5-oxo-5-((5-sulfamoyl-1,3,4-thiadiazol-2-yl)amino)pentyl)-1H-1,2,3-triazol-1-yl)acetic acid by DAPI staining based immunofluorescence analysis; assay type: functional, cell-based
[26] = Toxicity in Wistar rat assessed as change in ALT level in presence of 2-(4-(5-oxo-5-((5-sulfamoyl-1,3,4-thiadiazol-2-yl)amino)pentyl)-1H-1,2,3-triazol-1-yl)acetic acid; details: in vivo
Rattus norvegicus [27] = assay: as §1, with “reduction in heart swelling” for “elimination of pericardial effusion”; assay type: functional, organism-based; details: time 50.0 hrs

In the case of `COc1ccc2c(c1)c(CC(=O)O)c(C)n2C(=O)c1ccc(Cl)cc1` [INDOMETHACIN], the Activity (H9c2 [1]) is reported as “Active”, the Activity [2] is reported as “Toxic” and the Activity (H9c2 [3]) is reported as “Active”. The Activity (H9c2 [4]) was “Active”, the Activity (H9c2 [5]) was 91.8% and the Activity (H9c2 [6]) was 47.52 nmol/mg. For the same compound, the Activity (H9c2 [7]) was “Active”, the Activity (Rattus norvegicus [8]) was “Active” and the inhibition (H9c2 [9]) was “Active”. For the same compound, the Activity (H9c2 [10]) was “Active”, the Activity (H9c2 [11]) was “Active” and the Activity (H9c2 [12]) was “Active”. The Activity (Rattus norvegicus [13]) was 0.121 ng/mL, the Activity (H9c2 [14]) was “Active” and the Activity (H9c2 [15]) was “Active”. The Activity (H9c2 [16]) was “Active”, the Activity (H9c2 [17]) was “Active” and the Activity (H9c2 [18]) was “Active”. For the same compound, the Activity (Rattus norvegicus [19]) was “Active”, the Activity (H9c2 [20]) was 9.61% and the Activity (H9c2 [21]) was “Active”. The Activity (H9c2 [22]) was 23.96%, the Activity (Rattus norvegicus [23]) was 2620 U/L and the Activity (H9c2 [24]) was “Active”. For the same compound, the Activity (H9c2 [25]) was “Active”, the Activity [26] was “Toxic” and the Activity (Rattus norvegicus [27]) was “Active”.
